From US8119640B2, “Hedgehog pathway antagonists methods of use” (The Board of Trustees of the Leland Stanford Junior …, priority 2008, dated 2012) come the findings set out here.

Holding throughout (assay type): cell-based
The test system of data set [1] is NIH-3T3 cells. As to the kind of experiment: Microtubule cytoskeleton staining of HPI-treated NIH-3T3 cells. The following applies: tubulin antibody staining. On the procedure: Immunostaining of FLAG-Gli lines and NIH-3T3 cells. The FLAG-Gli1-expressing or FLAG-Gli2-expressing clonal cell lines were seeded into 24-well plates (80,000 cells/well) containing poly-D-lysine-coated 12-mm glass coverslips. […] The cells were subsequently fixed in 4% paraformaldehyde for 10 min at room temperature followed by treatment with methanol at −20° C. for 2 to 5 min. The cells were washed with PBS, permeabilized with 0.2% Triton X-100 for 2 to 5 min, and then blocked with PBS containing 2% BSA for 3 h at room temperature. The coverslips were then treated with mouse anti-FLAG M2 antibody (Sigma; 1:1,000 dilution in blocking buffer) and rabbit anti-Arl13b (10) (1:1,000 dilution in blocking buffer) for 3 h at room temperature and washed 3×5 min with PBS. The coverslips were incubated next with Alexa Fluor 594-conjugated goat anti-mouse IgG and Alexa Fluor 488-conjugated donkey anti-rabbit IgG antibodies (Invitrogen; 1:1,000 dilutions in blocking buffer) for 2 h at room temperature. After washes with PBS and a 5-min incubation with 4,6-diamidino-2-phenylindole (DAPI), the samples were mounted using Prolong Gold (Invitrogen) and imaged with an upright Leica DM4500B compound microscope. In order to quantify ciliary Gli2 localization, a circular region with diameter equal to the average width of cilia as determined by the anti-Arl13b antibody staining was manually placed at the distal end of each cilium. Regions were transferred from the anti-Arl13b antibody image to the anti-FLAG antibody image, and FLAG staining intensities within those areas were assessed. Between 40 and 80 cilia were analyzed for each condition. To normalize ciliary FLAG-Gli2 levels with respect to compound-dependent changes in total FLAG-Gli2 levels, the absolute average intensities for each condition were divided by the fold change in FLAG-Gli2 levels, as determined by the quantitative immunoblotting described above. Quantification of ciliary FLAG-Gli1 levels was performed in an analogous manner. Since HPI-4 perturbs primary cilia formation, only Arl13b-positive structures that could be clearly identified as cilia were used for Gli protein quanitification in HPI-4-treated cells. To assess cytoplasmic microtubule structures in cells treated with the HPIs, NIH-3T3 cells were cultured on poly-D-lysine-coated 12-mm glass coverslip, treated with the HPIs, and fixed with 4% paraformalehyde as described above. In place of the methanol treatment, the cells were permeabilitized with PBS containing 0.1% Triton X-100 for 1 min. Washing, blocking, and antibody incubation steps were then conducted as before, using mouse anti-<-tubulin (DM1-A, Sigma, 1:2,000 in blocking buffer). Secondary antibody treatments, DAPI staining, mounting, and imaging were then conducted as described above.

Data set [2] concerns Hh pathway. As to the kind of experiment: Su(fu)-/- fibroblasts assay for Hh pathway activation. Conditions: for % Inhibition Su(fu)-/- MEFs: Gli-dependent firefly luciferase, 15 μM HPI-1, 20 μM HPI-2, 30 μM HPI-3, 30 μM HPI-4, 1440 min; for Toxicity noted in Su(fu)-/- MEFs: printed instead of % inhibition. On the procedure:
Su(fu)^−/− fibroblasts assay for Hh pathway activation. […] After 24 h, the cells were transfected with Fugene HD (Roche), 8xGliBS-FL (95 ng/well), phRLSV40 (5 ng/well; Promega), and pEGFP-C1 (300 ng/well as a carrier; Clontech) according to the manufacturer's protocols. […] The resulting firefly and Renilla luciferase activities were measured using a dual luciferase kit and Veritas microplate luminometer.

Data set [3] deals with T1, Gli1 (Mus musculus, UniProt P47806).
T1 construct: expressed in transfected cells; host or cells: NIH-3T3
T1 sequence (P47806 1-1111): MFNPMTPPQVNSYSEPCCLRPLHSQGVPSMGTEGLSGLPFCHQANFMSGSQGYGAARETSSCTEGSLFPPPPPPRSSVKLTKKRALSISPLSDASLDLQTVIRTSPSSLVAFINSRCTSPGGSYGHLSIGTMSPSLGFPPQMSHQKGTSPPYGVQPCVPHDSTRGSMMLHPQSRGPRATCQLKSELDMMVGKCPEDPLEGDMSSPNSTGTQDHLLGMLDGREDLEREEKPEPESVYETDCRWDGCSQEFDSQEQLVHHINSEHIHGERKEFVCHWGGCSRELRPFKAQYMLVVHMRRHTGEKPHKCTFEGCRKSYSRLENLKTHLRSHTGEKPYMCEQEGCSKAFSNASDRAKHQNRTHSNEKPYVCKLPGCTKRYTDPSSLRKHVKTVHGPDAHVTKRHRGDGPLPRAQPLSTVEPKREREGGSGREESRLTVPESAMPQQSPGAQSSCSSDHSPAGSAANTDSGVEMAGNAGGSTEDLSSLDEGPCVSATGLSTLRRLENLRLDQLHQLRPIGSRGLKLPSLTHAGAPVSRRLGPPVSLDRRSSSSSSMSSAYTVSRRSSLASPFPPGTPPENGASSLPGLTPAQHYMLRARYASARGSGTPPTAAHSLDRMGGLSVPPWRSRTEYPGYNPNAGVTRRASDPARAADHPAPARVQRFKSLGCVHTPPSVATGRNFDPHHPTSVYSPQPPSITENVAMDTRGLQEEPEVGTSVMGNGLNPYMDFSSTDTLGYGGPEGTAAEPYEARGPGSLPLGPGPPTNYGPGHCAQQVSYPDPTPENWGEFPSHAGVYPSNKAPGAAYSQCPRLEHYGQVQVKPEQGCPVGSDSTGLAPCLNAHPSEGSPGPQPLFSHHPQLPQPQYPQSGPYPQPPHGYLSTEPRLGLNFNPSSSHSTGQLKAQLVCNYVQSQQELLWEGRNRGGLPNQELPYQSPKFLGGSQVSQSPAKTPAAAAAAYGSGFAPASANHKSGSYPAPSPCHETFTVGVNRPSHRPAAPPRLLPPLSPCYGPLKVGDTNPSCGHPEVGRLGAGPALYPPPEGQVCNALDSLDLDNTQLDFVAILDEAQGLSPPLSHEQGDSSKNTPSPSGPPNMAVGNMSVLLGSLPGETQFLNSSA
Description: Hh pathway activation mediated by overexpression of Gli1. Conditions: for IC50: NIH-3T3 cells overexpressing Gli1, read-out: IC50 (uM) Gli1 Transfected or Infection. On the procedure:
(§1) Hh pathway activation mediated by the overexpression of Gli, Gli2, Gli2αPKA, or Gli2αGSK. […] The cells were co-transfected the following day with 220 ng/well pcDNA-derived Gli1, Gli2, or Gli2 phosphosite mutant expression vectors and 80 ng/well of a 1:15 mixture of phRLTK (Promega) and 8XGIiBS-FL. After transfection, cells were grown to confluence (approximately 48 h). The cell were then incubated for an additional 28-32 h in DMEM containing 0.5% CS, 100 U/mL penicillin, 0.1 mg/mL streptomycin, and either DMSO, 50 μM forskolin, 50 μM LY294002, or various concentrations of the HPIs. Firefly and Renilla luciferase activities were measured using a dual luciferase kit and a Veritas microplate luminometer.

In data set [4] the target is T2, Gli2 (Mus musculus, UniProt Q0VGT2).
T2 construct: expressed in transfected cells; host or cells: NIH-3T3
As to the kind of experiment: Hh pathway activation mediated by overexpression of Gli2. The following applies: for IC50: NIH-3T3 cells overexpressing Gli2, read-out: IC50 (uM) Gli2 Transfected. On the procedure:
as §1

T2 sequence (Q0VGT2 whole entry): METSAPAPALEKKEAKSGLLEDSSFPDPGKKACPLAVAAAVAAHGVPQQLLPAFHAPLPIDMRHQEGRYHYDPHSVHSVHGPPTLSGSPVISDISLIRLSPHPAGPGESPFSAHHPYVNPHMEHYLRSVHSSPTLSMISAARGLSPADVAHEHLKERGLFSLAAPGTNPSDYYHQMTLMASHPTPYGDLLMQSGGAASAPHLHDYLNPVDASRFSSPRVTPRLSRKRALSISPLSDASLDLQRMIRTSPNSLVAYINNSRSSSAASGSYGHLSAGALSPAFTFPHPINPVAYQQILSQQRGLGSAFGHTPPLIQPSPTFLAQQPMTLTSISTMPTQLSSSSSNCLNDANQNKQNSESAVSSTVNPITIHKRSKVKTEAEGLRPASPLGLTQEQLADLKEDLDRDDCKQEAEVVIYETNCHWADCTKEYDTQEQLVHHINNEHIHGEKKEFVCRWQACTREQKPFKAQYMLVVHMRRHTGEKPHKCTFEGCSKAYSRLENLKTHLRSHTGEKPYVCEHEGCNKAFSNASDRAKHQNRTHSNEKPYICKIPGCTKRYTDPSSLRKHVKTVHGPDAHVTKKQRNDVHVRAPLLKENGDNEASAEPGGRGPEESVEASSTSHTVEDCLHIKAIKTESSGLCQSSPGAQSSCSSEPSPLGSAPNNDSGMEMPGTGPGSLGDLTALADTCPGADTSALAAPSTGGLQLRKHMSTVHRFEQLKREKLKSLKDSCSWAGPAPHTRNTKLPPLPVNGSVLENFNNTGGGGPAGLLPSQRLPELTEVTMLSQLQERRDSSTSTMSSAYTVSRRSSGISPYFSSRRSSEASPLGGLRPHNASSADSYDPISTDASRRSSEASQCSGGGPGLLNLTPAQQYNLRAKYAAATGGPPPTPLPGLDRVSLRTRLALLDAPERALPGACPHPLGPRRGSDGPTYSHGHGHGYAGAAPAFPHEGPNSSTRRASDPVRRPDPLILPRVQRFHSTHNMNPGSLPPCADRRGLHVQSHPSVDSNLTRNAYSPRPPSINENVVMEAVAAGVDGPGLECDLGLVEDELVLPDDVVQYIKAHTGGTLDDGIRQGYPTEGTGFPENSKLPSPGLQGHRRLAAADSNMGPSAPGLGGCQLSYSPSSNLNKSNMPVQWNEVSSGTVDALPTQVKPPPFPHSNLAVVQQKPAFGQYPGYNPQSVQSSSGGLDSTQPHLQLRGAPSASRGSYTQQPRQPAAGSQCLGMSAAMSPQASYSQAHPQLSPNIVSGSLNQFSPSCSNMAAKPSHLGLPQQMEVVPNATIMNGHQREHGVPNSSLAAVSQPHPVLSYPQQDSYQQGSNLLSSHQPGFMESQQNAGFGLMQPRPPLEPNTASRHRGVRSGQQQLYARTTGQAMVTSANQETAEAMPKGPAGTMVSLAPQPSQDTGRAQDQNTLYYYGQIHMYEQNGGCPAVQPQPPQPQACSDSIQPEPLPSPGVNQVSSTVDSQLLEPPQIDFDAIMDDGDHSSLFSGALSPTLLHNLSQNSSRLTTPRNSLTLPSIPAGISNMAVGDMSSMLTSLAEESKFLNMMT

`Cc1cc(/C=c2\sc3nc4ccccc4n3c2=O)c(C)n1C(C)C` [Compound 3]: the Microtubule disruption result in data set [1] is listed as “No”. For the same compound, the “% Inhibition Su(fu)-/- MEFs” value in data set [2] worked out at 92.8%. The IC50 came out at 1 µM in data set [3] and 2 µM in data set [4].

For `N#Cc1cc2c(nc1SCC(=O)Nc1nc3ccccc3s1)CCC2` [Compound 1], the Microtubule disruption entry in data set [1] was “No”. Further, the “% Inhibition Su(fu)-/- MEFs” value in data set [2] came to 95.2%. Moreover, the concentration for half-maximal inhibition (IC50) in data set [3] amounted to 1 µM; in data set [4], 3 µM.

As to `CCOc1ccc2ncc(C(=O)c3ccc(C)cc3)c(N3CCCC3)c2c1` [Compound 14], the Microtubule disruption entry in data set [1] is recorded as “No”. Also, the “% Inhibition Su(fu)-/- MEFs” value in data set [2] is listed as 84.3%. Besides, the concentration for half-maximal inhibition (IC50) in data set [3] is > 30 µM; in data set [4] it was 10 µM.

Turning to `O=S(=O)(Nc1cc(Cl)c(Cl)cc1Cl)c1ccc(F)cc1` [Compound 10], the Microtubule disruption result in data set [1] is “No”. The “% Inhibition Su(fu)-/- MEFs” value in data set [2] was found to be 81.8%. Besides, the figures for the IC50 in data set [3] and in data set [4] were 2 µM and 4 µM, respectively.

Take `COc1ccc(OC)c2c1cc1n2CC(C)(C(=O)NC2CCCCCCC2)N(CCN(C)C)C1=O` (stereo not shown) [Compound 17]: the Microtubule disruption entry in data set [1] was “No”. In data set [2], the “Repression of constitutive Hh pathway activity in Su(fu)-/- fibroblasts” value is “reduce Hh pathway activity in these cells to near-basal levels” and the “% Inhibition Su(fu)-/- MEFs” value turned out to be 89.1%. For the same compound, the IC50 in data set [3] is > 30 µM. The “Inhibition of Hh pathway activity induced by Gli1 overexpression” value in data set [3] (NIH-3T3 cells, Gli-dependent firefly luciferase) is given as “entirely due to a moderate increase in Renilla luciferase activity”. The IC50 in data set [4] came out at 6 µM. Moreover, the “Inhibition of Hh pathway activity induced by Gli2 overexpression” value in data set [4] (NIH-3T3 cells, Gli-dependent firefly luciferase, listed as HPI-2) is “preferentially inhibits Gli2”.

Consider `CN1CCN(C2Cc3ccccc3Sc3ccccc32)CC1` (stereo not shown) [Compound 13], for which, in data set [1], the Microtubule disruption entry is “No”. The “Toxicity noted in Su(fu)-/- MEFs” value in data set [2] is on record as “Toxic at 15”. The IC50 in data set [3] and in data set [4] was > 30 µM in each case.

`CC(C)(C)N(CCNS(=O)(=O)c1ccc(-c2cc(C(F)(F)F)no2)s1)Cc1ccco1` [Compound 12]: the Microtubule disruption result in data set [1] is reported as “No”. Moreover, in data set [2], the “Toxicity noted in Su(fu)-/- MEFs” value is “Toxic at 20”. In addition, the IC50 in data set [3] stood at 4 µM; in data set [4], 15 µM.

In general, IC50 refers to the concentration needed to halve the response being measured.
